Experimental data as given in the OligoGym collection.
Bases are written 5' to 3'; sugars and linkages follow in the same order, as letters with counts (s phosphorothioate, o phosphodiester; PS: all linkages phosphorothioate). The collection does not say whether C is 5-methylated. l = locked nucleic acid (LNA); d = 2'-deoxy (DNA)

Biological target: Tau
Experiment: rat primary cortical neurons, FLIPR, 25 uM ASO

Sequence | calcium oscillation score
ATACAATAAATACCATATTC (sugars l3 d14 l3, PS) | 81 % of control
CAAAATCCTTAATTTAACCA (sugars l4 d12 l4, PS) | 60.6 % of control
ACAAACCAGTTACCATC (sugars l3 d10 l4, PS) | 87.7 % of control
TTCGAAACCAAGGTCCCACC (sugars l3 d14 l3, PS) | 27.5 % of control
TCTCAGATTTTACTTCC (sugars l4 d11 l2, PS) | 49.3 % of control
GTTTTCAAACACACCTT (sugars l3 d10 l4, PS) | 104 % of control
CACATTTGCAAACCACA (sugars l3 d10 l4, PS) | 67.4 % of control
AATTCATTTAATTCTCTTCT (sugars l4 d12 l4, PS) | 86.6 % of control
TCTACATTTTTGTCTCA (sugars l3 d11 l3, PS) | 47.1 % of control
CCCTGAAACCATTAACT (sugars l3 d12 l2, PS) | 69 % of control
TACACCATCCAAGTCAA (sugars l3 d10 l4, PS) | 97 % of control
AGTCCCGTCTTTGC (sugars l3 d8 l3, PS) | 2.61 % of control
ATTTCCAAATTCACTTTTAC (sugars l4 d10 l2 d2 l2, PS) | 137 % of control
ATTTGGAAAGATGAAATTTG (sugars l3 d14 l3, PS) | 0 % of control
TCCTCCATTGTAACTACT (sugars l2 d14 l2, PS) | 59.4 % of control
TCAAATCAATTCTCATTTCA (sugars l3 d13 l4, PS) | 62 % of control
TTTTAACTCCCAACTCTTT (sugars l2 d13 l4, PS) | 99.7 % of control
GCCATTTTCCATATAAT (sugars l4 d11 l2, PS) | 37.5 % of control
ATGATGGATGTTGCCTAATG (sugars l3 d14 l3, PS) | 0 % of control
AAGATGAAATTTGCTC (sugars l3 d10 l3, PS) | ≥ 200 % of control
CGCCAGGGACGTGGGTGATA (sugars l3 d14 l3, PS) | 0 % of control
AGCAGGTTAAGTGATTAACC (sugars l3 d14 l3, PS) | 16 % of control

Sequence | calcium oscillation score
TGGATGTTGCCTAATG (sugars l3 d10 l3, PS) | 0 % of control
TTATTTCCAAATTCACTTTT (sugars lllldddddddddldlddll, PS) | 102 % of control
TTTATTTCCAAATTCACTTT (sugars ldlllddddddddddlldll, PS) | 83.1 % of control
ACTTACTGATCATAAT (sugars l4 d8 l4, PS) | 77.2 % of control
TCTTTATTAACACTCCACA (sugars l4 d13 l2, PS) | 62.5 % of control
ATTAATTATTAAATCTTCTC (sugars l4 d12 l4, PS) | 72.6 % of control
CTTTCTACTCAATTCCAG (sugars l3 d12 l3, PS) | 45.5 % of control
CTCCTAGAACACAACAC (sugars l3 d10 l4, PS) | 50.9 % of control
GAAGGTCAGCTTGTGG (sugars l3 d10 l3, PS) | 11.4 % of control
TAATTAGAAACCTCCT (sugars l4 d8 l4, PS) | 73.3 % of control
AATACATCAATAGAAGGCAA (sugars l3 d14 l3, PS) | 16.1 % of control
TCGATGCTGCCGGTGG (sugars l3 d10 l3, PS) | 33.9 % of control
CACCTTTTTCCATCTTACTA (sugars l2 d16 l2, PS) | 67.5 % of control
TTAACTCATCAACACCTTTT (sugars l4 d13 l3, PS) | 59 % of control
TTACCCTTAAATATGC (sugars l4 d8 l4, PS) | 73.3 % of control
CCAGATTCCCCAACTC (sugars l2 d12 l2, PS) | 73.3 % of control
TACTAGCCCACCCATCAATT (sugars l3 d14 l3, PS) | 54.4 % of control
AACTTCTAGTTATACAGTTG (sugars l3 d14 l3, PS) | 26.2 % of control
TTGATAAAACATCCCT (sugars l4 d8 l4, PS) | 65 % of control
AACTGCGAGGAGCAGC (sugars l3 d10 l3, PS) | 25.9 % of control
TCCATCCTAAGTCAAC (sugars l3 d9 l4, PS) | 65.3 % of control
CAAACCAGTTACCATCA (sugars l4 d9 l4, PS) | 87.7 % of control

Sequence | calcium oscillation score
GGCCACCTCCTGGTTT (sugars l3 d10 l3, PS) | 39.3 % of control
TGGTTTATGATGGATGTTGC (sugars l3 d14 l3, PS) | 0 % of control
TAGTTATACAGTTGGCCCTA (sugars l3 d14 l3, PS) | 19.1 % of control
CCTCCCTTTAATGCCAGGCC (sugars l3 d14 l3, PS) | 34.2 % of control
ACCATTAACTGCCTATT (sugars l4 d11 l2, PS) | 50.5 % of control
ACAGCCTCATAAACCTA (sugars l3 d11 l3, PS) | 59.4 % of control
TATTTCCAAATTCACTTTTA (sugars l5 d10 l5, PS) | ≥ 200 % of control
TTGGGTGGAGTACGGA (sugars l3 d10 l3, PS) | 0 % of control
TTGATACCCTTCCTCA (sugars l3 d10 l3, PS) | 14.3 % of control
CATCCACTTAGACACTC (sugars l4 d11 l2, PS) | 43.8 % of control
TTCTTCCTTTGTAATTC (sugars l4 d11 l2, PS) | 43.5 % of control
CTAATCCTGTGCTTCA (sugars l3 d10 l3, PS) | 100 % of control
CTTTATTTCCAAATTCAC (sugars l3 d11 l1 d1 l2, PS) | 132 % of control
GCTGGGTGGTGTCTTTGGAG (sugars l3 d14 l3, PS) | 0 % of control
CAGATTCCCCAACTCACA (sugars l2 d14 l2, PS) | 71.5 % of control
CCAATCAATTATATTATAT (sugars l4 d11 l4, PS) | 60.8 % of control
GTCGATGCTGCCGGTG (sugars l3 d10 l3, PS) | 0 % of control
AAGTCCCGAGCCAAA (sugars l3 d9 l3, PS) | 102 % of control
CCCAGCGTGATCTTCC (sugars l3 d10 l3, PS) | 4.6 % of control
CAAACAGGATACAGT (sugars l3 d9 l3, PS) | 49.6 % of control
ATTTTACTACTCTCTTTTC (sugars l4 d11 l4, PS) | 70.6 % of control
TCCTCACTTTACACATTA (sugars l3 d13 l2, PS) | 62.5 % of control

Sequence | calcium oscillation score
CTCCTAATTTTGCACTC (sugars l3 d11 l3, PS) | 46.7 % of control
CAGGGACCCAATCTTCGACT (sugars l3 d14 l3, PS) | 9.04 % of control
GCCTAATGAGCCACACTTGG (sugars l3 d14 l3, PS) | 16.6 % of control
CCAAGAGGCACAAGTC (sugars l3 d10 l3, PS) | 74.3 % of control
CCACTACAAGCTCCACAT (sugars l2 d14 l2, PS) | 50 % of control
TTCCCTTAATTTCACC (sugars l3 d10 l3, PS) | 127 % of control
ACCTCCTGGTTTAT (sugars l3 d8 l3, PS) | 89.7 % of control
CGTCCCAGCGTGATCTTCCA (sugars l4 d11 l5, PS) | 42.6 % of control
TATTATCCTTTGAGCCACAC (sugars l3 d14 l3, PS) | 77.4 % of control
TCCTGGTTTATGATGGATGT (sugars l3 d14 l3, PS) | 5.81 % of control
TCCACTTAGACACTCTTT (sugars l3 d13 l2, PS) | 37.5 % of control
TATTTATTCTTTTTATTATT (sugars l4 d12 l4, PS) | 58.6 % of control
TTATTTCCAAATTCACTTTT (sugars l4 d11 l2 d1 l2, PS) | 104 % of control
CTCAGATTTTACTTCCA (sugars l4 d11 l2, PS) | 45.2 % of control
CCCAGAATTCTAACTA (sugars l4 d10 l2, PS) | 63.5 % of control
ATCTTAGGCTGGCCC (sugars l3 d9 l3, PS) | 50.6 % of control
CTTTATTTCCAAATTCACTT (sugars l4 d11 l5, PS) | 136 % of control
ACCTCTTAGTCATCTTCC (sugars l2 d13 l3, PS) | 74.4 % of control
GACTTGTACACGAT (sugars l3 d8 l3, PS) | 112 % of control
ATTAACCAATTAACCGAACT (sugars l3 d14 l3, PS) | 45.2 % of control
AACATCATGTCACACAC (sugars l4 d9 l4, PS) | 39 % of control
ATTTAGTTTTCCCACCC (sugars l2 d13 l2, PS) | 63.4 % of control

Sequence | calcium oscillation score
CCTTGAAGTCAAGCTTCTCA (sugars l3 d14 l3, PS) | 66.4 % of control
CTCTAAGTAGACCCTGGCCA (sugars l3 d14 l3, PS) | 19.1 % of control
GAGTGCTCTTAGCATC (sugars l3 d10 l3, PS) | 33.3 % of control
CATGTCGATGCTGCCG (sugars l3 d10 l3, PS) | 67.3 % of control
CTTTATTTCCAAATTCACTT (sugars l2 d1 l2 d11 l4, PS) | 0 % of control
ACCACCTCATTAAGATC (sugars l4 d11 l2, PS) | 58.3 % of control
ACTGGCGACTTGTACACGAT (sugars l3 d14 l3, PS) | 0 % of control
TTAGCCCTAAAGTCCCAGGT (sugars l3 d14 l3, PS) | 86.3 % of control
CTTTATTTCCAAATTCAC (sugars l4 d10 l1 d1 l2, PS) | 5.59 % of control
TATTGTCCAGGGACCCAATC (sugars l3 d14 l3, PS) | 33.2 % of control
AATAGCAAACAGGAT (sugars l3 d9 l3, PS) | 3.83 % of control
ATTCATAAATGACTATACTT (sugars l3 d14 l3, PS) | 68.5 % of control
AGCTTTGAGTTGAGGG (sugars l3 d10 l3, PS) | 0 % of control
ATACTCAAATTCTTCCTTT (sugars l3 d12 l4, PS) | 74 % of control
CACCTTCAGCCCAACTT (sugars l4 d11 l2, PS) | 41.6 % of control
TATTTCCAAATTCACTTTTA (sugars llddldldddddddddllll, PS) | 152 % of control
ACTCAGTTCTCTATAAT (sugars l4 d9 l4, PS) | 64.1 % of control
GGCTTTGGCGTTCTCG (sugars l3 d10 l3, PS) | 1.35 % of control
CTTCTCAGCCACTGTT (sugars l3 d10 l3, PS) | 67.9 % of control
TCCCAGCGTGATCTTCCATC (sugars l4 d11 l5, PS) | 55.4 % of control
